Assay results: US20200276334A1, “New Therapy for Pompe Disease” (Erasmus University Medical Center Rotterdam, priority 2017, published 2020)
Like-named read-outs stand apart in the source and are kept apart here.

What was measured:
pluripotent stem cells = conditions: cited from earlier work
[1] = system: iPSC lines used in this study; test: CHIR99021 optimisation for differentiation of iPSCs into myogenic progenitor cells; type: cell-based, human
Protocol: (§1) A confluent iPSC culture in a 35 mm dish was incubated for 5 minutes at 37° C. with 2 mg/ml collagenase IV in DMEM/F12, cut into pieces with a 23 gauge needle, detached with a cell scraper and split into a 10 cm dish with a confluency of 40%. After 5 days, differentiation into myogenic progenitor cells (MPCs) was started with myogenic differentiation medium (DMEM/F12, 1% Insulin-Transferrin-Selenium-Ethanolamine, 1% penicillin/streptomycin/L-glutamine) supplemented with 3.5 μM CHIR99021 for 5 days and changed to myogenic differentiation medium supplemented with 20 ng/ml FGF2 (Peprotech. London. UK) for 14 days. The last 16 days, cells were cultured in myogenic differentiation medium only. For FACS purification cells were detached with TrypLE and stained on ice with anti-C-MET-APC (1:50, R&D systems, Minneapolis Minn.) and anti-HNK-1-FITC (1:100, Aviv Systems Biology, San Diego. Calif.) antibodies. Prior to FACS, Hoechst (33258, Life Technologies, Carlsbad, Calif.) was added to stain live cells. The c-MET^+/Hoechst^+/Hnk-1^− fraction was sorted in MPC proliferation medium (DMEM high glucose supplemented with 10% fetal bovine serum, 1% penicillin/streptomycin/L-glutamine and 100 ng/ml FGF2) supplemented with 1× Revitacell supplement (Gibco, Waltham. Mass.). For slightly positive cultures, MPCs were sorted with a maximum sorting time of 20 minutes and pooled into a single well until amount of 20.000 for 96 well, 40.000 for 48 well or 80.000 for 24 well was reached. After 24 hours. MPCs were expanded in MPC proliferation medium or cryopreserved. Further details are described previously (van der Wal et al., 2017).
The first step of the differentiation procedure from iPSCs into MPCs is the stimulation of the Wnt pathway with CHIR99021. In a previous study on which the current protocol was based. […] In order to define the optimal concentration of CHIR99021 we generated single cells from iPSCs, and incubated these with 10 μM CHIR99021 for 2 days, followed by the differentiation procedure highlighted in FIG. 5. […]

Control 1 iPSCs = test: Optimization of CHIR99021 concentration, Control 1 iPSC colonies (confluency, Pax7 staining); type: cell-based, human
Protocol: as §1
(§2) Differentiated cells were fixed by adding 1 volume of 4% paraformaldehyde (PFA) (Merck, Kenilworth, N.J.) in PBS to the medium. PFA was incubated for 10 minutes at room temperature and afterwards replaced by PBS. Fixed cells were either stored at 4° C. or directly stained. For staining, cells were permeabilized for 5 minutes with 0.1% Triton X-100 (AppliChem, Darmstadt, Germany) in PBS and blocked for 30 minutes at room temperature in blocking solution (PBS-T (0.1% Tween. Sigma Aldrich, Irvine. UK) with 3% BSA (Sigma Aldrich. Irvine, UK)). Primary antibodies (Table 5) were incubated 1 hour at room temperature and diluted into 0.1% BSA in PBS-T. The unbound first antibody was removed by washing three times for 5 minutes with PBS-T. Secondary antibodies (1:500, Alexa-Fluor-594-α-goat, Alexa-Fluor-488-α-mouse, Alexa-Fluor-594-α-rabbit, Alexa-Fluor-488-α-rabbit, Invitrogen, Carlsbad, Calif. or horse anti-mouse biotin, Vector Laboratories, Burlingame, Calif.) were incubated for 30 minutes at room temperature in PBS-T. When a secondary biotinylated antibody was used cells were washed three times for 5 minutes with PBS-T and incubated with Streptavidine 594 (1:500. Invitrogen, Carlsbad. Calif.,). The cells were subsequently washed two times for 5 minutes with PBS and incubated for 15 minutes with Hoechst (1:15000. Thermo Scientific, Waltham, Mass.). Cells were imaged in PBS.
(§3) The first step of the differentiation procedure from iPSCs into MPCs is the stimulation of the Wnt pathway with CHIR99021. In a previous study on which the current protocol was based. […] In order to define the optimal concentration of CHIR99021 we generated single cells from iPSCs, and incubated these with 10 μM CHIR99021 for 2 days, followed by the differentiation procedure highlighted in FIG. 5. […] Generating single iPSCs in feeder-based culture systems causes massive apoptosis and addition of Rock inhibitor is required (Watanabe et al., 2007). To keep the differentiation protocol applicable for feeder-dependent and feeder-free cultures we decided to further optimize the concentration of CHIR99021 on plated iPSC colonies with a range from 3 to 5 μM CHIR99021, with incubation for 4, 5, 8 or 10 days. […] To avoid toxicity, we used a concentration of 3.5 μM CHIR99021 in our final differentiation protocol.

Control 2 iPSCs = test: Optimization of CHIR99021 concentration, Control 2 iPSC colonies (confluency, Pax7 staining); type: cell-based, human
Protocol: as §1, §2, §3

[2] = cited from earlier work

Cc1cnc(-c2cnc(NCCNc3ccc(C#N)cn3)nc2-c2ccc(Cl)cc2Cl)[nH]1 [CHIR99021, 6-[2-[[4-(2,4-dichlorophenyl)-5-(5-methyl-1H-imidazol-2-yl)pyrimidin-2-yl]amino]ethylamino]pyridine-3-carbonitrile]
induction of paraxial mesoderm (pluripotent stem cells; 10 μM CHIR99021 incubated for 2 days, Shelton et al., 2014): better induction of paraxial mesoderm
concentration at which toxicity was described (pluripotent stem cells; Borchin et al., 2013): higher than 3 μM
Pax7 staining, amount of Pax7-positive areas in the culture ([1]; control 1 and control 2 iPSCs, 4 μM CHIR99021 for 5 days, range tested 3 to 5 μM for 4, 5, 8 or 10 days): highest amount of Pax7-positive areas
concentration resulting in higher toxicity levels and more variable response among iPSC lines ([1]; plated iPSC colonies): > 4 µM
Pax7 positive cells after 40 days of differentiation ([1]; single cells from iPSCs, 10 μM CHIR99021 for 2 days): Pax7 positive cells were observed
Confluency (Control 1 iPSCs; 3 μM CHIR99021, 4 days): 65%
Pax7+ (Control 1 iPSCs; 3 μM CHIR99021, 4 days): + +
Confluency (Control 1 iPSCs; 3 μM CHIR99021, 5 days): 50%
Confluency (Control 1 iPSCs; 3 μM CHIR99021, 8 days): 40%
Confluency (Control 1 iPSCs; 3 μM CHIR99021, 10 days): 40%
Confluency (Control 1 iPSCs; 4 μM CHIR99021, 4 days): 85%
Pax7+ (Control 1 iPSCs; 4 μM CHIR99021, 4 days): + + +
Confluency (Control 1 iPSCs; 4 μM CHIR99021, 5 days): 100%
Pax7+ (Control 1 iPSCs; 4 μM CHIR99021, 5 days): + + +
Confluency (Control 1 iPSCs; 4 μM CHIR99021, 8 days): 75%
Confluency (Control 1 iPSCs; 4 μM CHIR99021, 10 days): 50%
Pax7+ (Control 1 iPSCs; 4 μM CHIR99021, 10 days): + +
Confluency (Control 1 iPSCs; 5 μM CHIR99021, 4 days): 60%
Pax7+ (Control 1 iPSCs; 5 μM CHIR99021, 4 days): + +
Confluency (Control 1 iPSCs; 5 μM CHIR99021, 5 days): 70%
Pax7+ (Control 1 iPSCs; 5 μM CHIR99021, 5 days): + + +
Confluency (Control 1 iPSCs; 5 μM CHIR99021, 8 days): 0%
Confluency (Control 1 iPSCs; 5 μM CHIR99021, 10 days): 0%
Confluency (Control 2 iPSCs; 3 μM CHIR99021, 4 days): 95%
Confluency (Control 2 iPSCs; 3 μM CHIR99021, 5 days): 100%
Confluency (Control 2 iPSCs; 3 μM CHIR99021, 8 days): 90%
Confluency (Control 2 iPSCs; 3 μM CHIR99021, 10 days): 95%
Confluency (Control 2 iPSCs; 4 μM CHIR99021, 4 days): 95%
Pax7+ (Control 2 iPSCs; 4 μM CHIR99021, 4 days): + +
Confluency (Control 2 iPSCs; 4 μM CHIR99021, 5 days): 95%
Pax7+ (Control 2 iPSCs; 4 μM CHIR99021, 5 days): + +
Confluency (Control 2 iPSCs; 4 μM CHIR99021, 8 days): 95%
Pax7+ (Control 2 iPSCs; 4 μM CHIR99021, 8 days): + +
Confluency (Control 2 iPSCs; 4 μM CHIR99021, 10 days): 85%
Confluency (Control 2 iPSCs; 5 μM CHIR99021, 4 days): 95%
Confluency (Control 2 iPSCs; 5 μM CHIR99021, 5 days): 95%
Pax7+ (Control 2 iPSCs; 5 μM CHIR99021, 5 days): + +
Confluency (Control 2 iPSCs; 5 μM CHIR99021, 8 days): 50%
Confluency (Control 2 iPSCs; 5 μM CHIR99021, 10 days): 30%

recombinant human GAA: recombinant human acid α-glucosidase used for enzyme replacement therapy
half life ([2]; in blood): 2 to 3 h
half life ([2]; in cells): several days
